In patent US20210038607A1, “OXADIAZOLYLTHIOPHENE DERIVATIVES USEFUL AS HISTONE DEACETYLASE INHIBITORS” (Karus Therapeutics Limited, priority 2018, published 2021):

Legend:
[1] = target: T1, Human HDAC9 (Homo sapiens, UniProt Q9UKV0); test: HDAC9 biochemical assay, class IIa-specific substrate; conditions: read-out: HDAC Isoform IC50 (nM) 9
T1 construct: amino acids 604-1066 with C-terminal His tag; His (C); host or cells: baculovirus expression system
Method in brief: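 HDAC9 residues 604-1066 (C-terminal His tag, baculovirus-expressed) at 0.06 ng/ul with 50 μM class IIa substrate Boc-Lys(trifluoroacetyl)-AMC in Tris-HCl pH 8.0 buffer with BSA and 1% DMSO. 30 min at room temperature, then developer added; fluorescence read at 360/460 nm Ex/Em.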

[2] = target: T2, Human HDAC10 (Homo sapiens, UniProt Q969S8); test: HDAC10 biochemical assay, AMC-labeled peptide substrate; conditions: read-out: HDAC Isoform IC50 (nM) 10
T2 construct: Human HDAC10 (a.a. 1-481); GST (N); His (C); host or cells: baculovirus expression system
T2 sequence (Q969S8 1-481): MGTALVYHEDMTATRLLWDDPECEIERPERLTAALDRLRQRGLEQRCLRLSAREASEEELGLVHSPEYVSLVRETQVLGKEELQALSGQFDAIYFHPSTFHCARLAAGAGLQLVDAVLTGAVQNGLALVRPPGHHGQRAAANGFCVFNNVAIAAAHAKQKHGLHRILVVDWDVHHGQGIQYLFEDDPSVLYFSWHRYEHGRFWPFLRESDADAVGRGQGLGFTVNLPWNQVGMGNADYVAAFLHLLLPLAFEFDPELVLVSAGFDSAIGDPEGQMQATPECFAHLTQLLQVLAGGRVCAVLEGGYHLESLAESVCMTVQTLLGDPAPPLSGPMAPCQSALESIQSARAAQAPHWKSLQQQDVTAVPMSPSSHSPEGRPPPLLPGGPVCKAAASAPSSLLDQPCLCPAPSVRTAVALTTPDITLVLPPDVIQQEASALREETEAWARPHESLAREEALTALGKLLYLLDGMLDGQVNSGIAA
Procedure: (§1) Activity against all zinc-dependent HDACs 1 to 11 was assessed by using an acetylated AMC-labeled peptide substrate. The substrate RHKK(Ac)AMC was used for HDAC1, HDAC2, HDAC3, HDAC6 and HDAC10; the substrate used for HDAC8 was RHK(Ac)K(Ac)AMC. Activity against the class IIa HDACs (HDAC4, 5, 7, 9) and HDAC11 was determined using a class IIa-specific substrate, BOC-Lys(trifluoroacetyl)-AMC (“Trifluoroacetyl Lysine”; see Lahm et al, 2007, PNAS, 104, 17335-17340). All assays were based on the AMC-labeled substrate and developer combination.
(§2) The protocol involved a two-step reaction: first, the substrate with the acetylated lysine side chain is incubated with a sample containing HDAC activity, to produce the deacetylated products, which are then digested in the second step by the addition of developer to produce the fluorescent signal proportional to the amount of deacetylated substrates.
Human HDAC10 (a.a. 1-481), GenBank Accession No. NM_032019 with N-terminal GST tag and C-terminal His tag, MW=78 kDa, expressed in baculovirus expression system.
(§3) Assay Buffer: 50 mM Tris-HCl, pH8.0, 137 mM NaCl, 2.7 mM KCl, 1 mM MgC2. Before use, 1 mg/mL BSA and DMSO are added.
HDAC10: 12 ng/ul HDAC10 and 50 μM HDAC substrate are in the reaction buffer with 1% DMSO final. Incubate for 2 hours at 30° C.
(§4) Stage 1: Deacetylation of substrate by incubation of HDAC enzymes with compounds
(§5) Stage 2: Development by addition of Developer to digest the deacetylated substrate, and generate the fluorescent colour; Detection: 360/460 Ex/Em

[3] = target: T3, Human HDAC8 (Homo sapiens, UniProt Q9BY41); test: HDAC8 biochemical assay, AMC-labeled peptide substrate; conditions: read-out: HDAC Isoform IC50 (nM) 8
T3 construct: full length with C-terminal His tag, MW=42.6 kDa; His (C); host or cells: baculovirus expression system
T3 sequence (Q9BY41 1-377): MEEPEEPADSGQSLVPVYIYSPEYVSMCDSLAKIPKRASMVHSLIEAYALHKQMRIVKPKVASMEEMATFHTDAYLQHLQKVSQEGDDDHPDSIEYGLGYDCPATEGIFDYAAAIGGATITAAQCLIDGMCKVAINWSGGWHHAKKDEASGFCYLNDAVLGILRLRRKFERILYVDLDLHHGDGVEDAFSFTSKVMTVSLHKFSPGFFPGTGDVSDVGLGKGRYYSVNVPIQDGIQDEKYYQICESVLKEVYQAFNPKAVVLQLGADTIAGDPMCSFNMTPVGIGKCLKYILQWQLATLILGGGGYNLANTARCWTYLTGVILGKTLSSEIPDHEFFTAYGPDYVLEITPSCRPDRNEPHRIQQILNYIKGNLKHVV
Procedure: as §1, §2
Human HDAC8 (GenBankAccession No. NM_018486), full length with C-terminal His tag, MW=42.6 kDa, expressed in a baculovirus expression system.
as §3
HDAC8: 1 ng/ul HDAC8 and 100 µM HDAC8 substrate are in the reaction buffer with 1% DMSO final. Incubate for 2 hours at 30° C.
as §4, §5

T1 sequence (Q9UKV0 604-1066 isoform Q9UKV0-5): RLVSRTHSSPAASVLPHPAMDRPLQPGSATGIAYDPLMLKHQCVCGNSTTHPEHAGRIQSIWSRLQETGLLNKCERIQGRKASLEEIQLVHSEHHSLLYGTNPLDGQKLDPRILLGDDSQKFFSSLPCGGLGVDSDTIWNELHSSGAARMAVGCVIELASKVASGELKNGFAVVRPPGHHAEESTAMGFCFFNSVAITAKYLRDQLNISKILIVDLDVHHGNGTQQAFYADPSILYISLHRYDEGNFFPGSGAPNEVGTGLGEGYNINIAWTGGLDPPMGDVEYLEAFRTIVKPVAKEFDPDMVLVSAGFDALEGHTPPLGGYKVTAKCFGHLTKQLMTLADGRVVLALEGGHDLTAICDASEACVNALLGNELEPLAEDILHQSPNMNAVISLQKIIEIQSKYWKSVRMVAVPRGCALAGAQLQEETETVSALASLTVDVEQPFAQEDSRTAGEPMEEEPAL

| SMILES | IC50 [1] [nM] | IC50 [2] [nM] | IC50 [3] [nM] |
| --- | --- | --- | --- |
| O=C(O)c1ccc(N(Cc2sc(-c3noc(C(F)(F)F)n3)cc2F)c2cnccn2)nn1 [Example EZ, 6-[({3-Fluoro-5-[5-(trifluoromethyl)-1,2,4-oxadiazol-3-yl]thiophen-2-yl}methyl)(pyrazin-2-yl)amino]pyridazine-3-carboxylic acid] | ≤ 10000 | > 10000 | ≤ 10000 |
| CC1(c2cnnc(N(Cc3ccc(-c4noc(C(F)(F)F)n4)s3)c3cnccn3)c2)COC1 [Example GT, 5-(3-Methyloxetan-3-yl)-N-(pyrazin-2-yl)-N-({5-[5-(trifluoromethyl)-1,2,4-oxadiazol-3-yl]thiophen-2-yl}methyl)pyridazin-3-amine] | ≤ 10000 | > 10000 | ≤ 10000 |
| O=C(c1cnnc(N(Cc2ccc(-c3noc(C(F)(F)F)n3)s2)c2cnccn2)c1)N1CC(C(F)F)C1 [Example GK, 5-[3-(Difluoromethyl)azetidine-1-carbonyl]-N-(pyrazin-2-yl)-N-({5-[5-(trifluoromethyl)-1,2,4-oxadiazol-3-yl]thiophen-2-yl}methyl)pyridazin-3-amine] | ≤ 10000 | > 10000 | ≤ 10000 |
| O=C(c1cnnc(N(Cc2ccc(-c3noc(C(F)(F)F)n3)s2)c2cnccn2)c1)N1CC2CCC(C1)O2 [Example GA, 5-{8-Oxa-3-azabicyclo[3.2.1]octane-3-carbonyl}-N-(pyrazin-2-yl)-N-({5-[5-(trifluoromethyl)-1,2,4-oxadiazol-3-yl]thiophen-2-yl}methyl)pyridazin-3-amine] | ≤ 10000 | > 10000 | ≤ 10000 |
| O=C(c1ccc(N(Cc2ccc(-c3noc(C(F)(F)F)n3)s2)c2cnccn2)nn1)N1CCCCC1 [Example FG, 6-(Piperidine-1-carbonyl)-N-(pyrazin-2-yl)-N-({5-[5-(trifluoromethyl)-1,2,4-oxadiazol-3-yl]thiophen-2-yl}methyl)pyridazin-3-amine] | ≤ 1000 | > 10000 | ≤ 10000 |
| O=C(c1cncc(N(Cc2ccc(-c3noc(C(F)(F)F)n3)s2)c2cnccn2)c1)N1CCOCC1 [Example GR, N-[5-(Morpholine-4-carbonyl)pyridin-3-yl]-N-({5-[5-(trifluoromethyl)-1,2,4-oxadiazol-3-yl]thiophen-2-yl}methyl)pyrazin-2-amine] | ≤ 10000 | > 10000 | ≤ 10000 |
| O=C(c1ccc(N(Cc2ccc(-c3noc(C(F)(F)F)n3)s2)c2cnccn2)nn1)N1C[C@@H]2C[C@H]1C[S@@+]2[O-] [Example FR, (1S,2R,4S)-5-{6-[(Pyrazin-2-yl)({5-[5-(trifluoromethyl)-1,2,4-oxadiazol-3-yl]thiophen-2-yl}methyl)amino]pyridazine-3-carbonyl}-2-thia-5-azabicyclo[2.2.1]heptan-2-ium-2-olate] | ≤ 1000 | > 10000 | ≤ 10000 |
| CC(C)OC1CN(C(=O)c2cnnc(N(Cc3ccc(-c4noc(C(F)(F)F)n4)s3)c3cnccn3)c2)C1 [Example GC, 5-[3-(Propan-2-yloxy)azetidine-1-carbonyl]-N-(pyrazin-2-yl)-N-({5-[5-(trifluoromethyl)-1,2,4-oxadiazol-3-yl]thiophen-2-yl}methyl)pyridazin-3-amine] | ≤ 10000 | > 10000 | ≤ 10000 |
| COC1CN(Cc2ccnc(N(Cc3ccc(-c4noc(C(F)(F)F)n4)s3)c3cnccn3)c2)C1 [Example GH, N-{4-[(3-Methoxyazetidin-1-yl)methyl]pyridin-2-yl}-N-({5-[5-(trifluoromethyl)-1,2,4-oxadiazol-3-yl]thiophen-2-yl}methyl)pyrazin-2-amine] | ≤ 10000 | > 10000 | ≤ 10000 |
| O=C(c1ccc(N(Cc2ccc(-c3noc(C(F)(F)F)n3)s2)c2cnccn2)nn1)N1CCC1 [Example FF, 6-(Azetidine-1-carbonyl)-N-(pyrazin-2-yl)-N-({5-[5-(trifluoromethyl)-1,2,4-oxadiazol-3-yl]thiophen-2-yl}methyl)pyridazin-3-amine] | ≤ 1000 | > 10000 | ≤ 10000 |
| O=C(c1cnnc(N(Cc2ccc(-c3noc(C(F)(F)F)n3)s2)c2cnccn2)c1)N1CCCC1 [Example EA, N-(Pyrazin-2-yl)-5-(pyrrolidine-1-carbonyl)-N-({5-[5-(trifluoromethyl)-1,2,4-oxadiazol-3-yl]thiophen-2-yl}methyl)pyridazin-3-amine] | ≤ 10000 | > 10000 | ≤ 10000 |

Next, values leading:

| IC50 [1] [nM] | IC50 [2] [nM] | IC50 [3] [nM] | SMILES |
| --- | --- | --- | --- |
| ≤ 10000 | > 10000 | ≤ 10000 | Fc1ccnc(N(Cc2ccc(-c3noc(C(F)(F)F)n3)s2)c2cnccn2)c1 [Example AG, N-(4-Fluoropyridin-2-yl)-N-({5-[5-(trifluoromethyl)-1,2,4-oxadiazol-3-yl]thiophen-2-yl}methyl)pyrazin-2-amine] |
| ≤ 10000 | > 10000 | ≤ 10000 | NC(=O)c1cnnc(N(Cc2ccc(-c3noc(C(F)(F)F)n3)s2)c2cnccn2)c1 [Example DX, 6-[(Pyrazin-2-yl)({5-[5-(trifluoromethyl)-1,2,4-oxadiazol-3-yl]thiophen-2-yl}methyl)amino]pyridazine-4-carboxamide] |
| ≤ 10000 | > 10000 | > 10000 | FC(F)(F)c1nc(-c2ccc(CN(c3ccccn3)c3ccccn3)s2)no1 [Example U, N-(Pyridin-2-yl)-N-({5-[5-(trifluoromethyl)-1,2,4-oxadiazol-3-yl]thiophen-2-yl}methyl)pyridin-2-amine] |
| ≤ 10000 | > 10000 | ≤ 10000 | COc1cncc(N(Cc2ccc(-c3noc(C(F)(F)F)n3)s2)c2cnccn2)n1 [Example BQ, 6-Methoxy-N-(pyrazin-2-yl)-N-({5-[5-(trifluoromethyl)-1,2,4-oxadiazol-3-yl]thiophen-2-yl}methyl)pyrazin-2-amine] |
| ≤ 10000 | > 10000 | ≤ 10000 | CNC(=O)c1ccc(N(Cc2ccc(-c3noc(C(F)(F)F)n3)s2)c2cnccn2)nn1 [Example FC, N-Methyl-6-[(pyrazin-2-yl)({5-[5-(trifluoromethyl)-1,2,4-oxadiazol-3-yl]thiophen-2-yl}methyl)amino]pyridazine-3-carboxamide] |
| ≤ 10000 | > 10000 | ≤ 10000 | FC(F)(F)c1nc(-c2ccc(CN(c3cnccn3)c3cc(CN4CCCC4)ccn3)s2)no1 [Example GG, N-{4-[(Pyrrolidin-1-yl)methyl]pyridin-2-yl}-N-({5-[5-(trifluoromethyl)-1,2,4-oxadiazol-3-yl]thiophen-2-yl}methyl)pyrazin-2-amine] |
